Source: the supplement of paper PMC10307832

Assays:
Assay in all cases: relative viability (nuclei count vs DMSO), 5 days (fraction); higher = more cells survive
Dovitinib + Trametinib = compound: CN1CCN(c2ccc3nc(-c4c(N)c5c(F)cccc5[nH]c4=O)[nH]c3c2)CC1 [Dovitinib] + CC(=O)Nc1cccc(-n2c(=O)n(C3CC3)c(=O)c3c(Nc4ccc(I)cc4F)n(C)c(=O)c(C)c32)c1 [Trametinib] (partner 0.02 µM)
Outline: (§1)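 Relative viability equals treated-well nuclei counts divided by vehicle-well nuclei counts. Counts came from 4× images of lung cancer cell lines grown in 1536-well plates for 5 days after pin-tool dosing on the day after seeding. Dosing used one drug alone or a fixed anchor-drug dose plus five library-drug doses (not always all listed) in √10 steps, and values are medians of duplicate plates.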

Dovitinib + Lapatinib = compound: CN1CCN(c2ccc3nc(-c4c(N)c5c(F)cccc5[nH]c4=O)[nH]c3c2)CC1 [Dovitinib] + CS(=O)(=O)CCNCc1ccc(-c2ccc3ncnc(Nc4ccc(OCc5cccc(F)c5)c(Cl)c4)c3c2)o1 [Lapatinib] (partner 2 µM)
Outline: as §1

Dovitinib + Phenformin = compound: CN1CCN(c2ccc3nc(-c4c(N)c5c(F)cccc5[nH]c4=O)[nH]c3c2)CC1 [Dovitinib] + N=C(N)NC(=N)NCCc1ccccc1 [Phenformin] (partner 250 µM)
Outline: as §1

Dovitinib + Olaparib = compound: CN1CCN(c2ccc3nc(-c4c(N)c5c(F)cccc5[nH]c4=O)[nH]c3c2)CC1 [Dovitinib] + O=C(c1cc(Cc2n[nH]c(=O)c3ccccc23)ccc1F)N1CCN(C(=O)C2CC2)CC1 [Olaparib] (partner 8 µM)
Outline: as §1

| Cell Line | relative viability (Dovitinib + Trametinib; first compound 0.02 µM) | relative viability (Dovitinib + Trametinib; first compound 0.06325 µM) | relative viability (Dovitinib + Trametinib; first compound 0.2 µM) | relative viability (Dovitinib + Trametinib; first compound 0.6325 µM) | relative viability (Dovitinib + Trametinib; first compound 2 µM) | relative viability (Dovitinib + Lapatinib; first compound 0.02 µM) | relative viability (Dovitinib + Lapatinib; first compound 0.06325 µM) | relative viability (Dovitinib + Lapatinib; first compound 0.2 µM) | relative viability (Dovitinib + Lapatinib; first compound 0.6325 µM) | relative viability (Dovitinib + Lapatinib; first compound 2 µM) | relative viability (Dovitinib + Phenformin; first compound 0.02 µM) | relative viability (Dovitinib + Phenformin; first compound 0.06325 µM) | relative viability (Dovitinib + Phenformin; first compound 0.2 µM) | relative viability (Dovitinib + Phenformin; first compound 0.6325 µM) | relative viability (Dovitinib + Phenformin; first compound 2 µM) | relative viability (Dovitinib + Olaparib; first compound 0.02 µM) | relative viability (Dovitinib + Olaparib; first compound 0.06325 µM) | relative viability (Dovitinib + Olaparib; first compound 0.2 µM) | relative viability (Dovitinib + Olaparib; first compound 0.6325 µM) | relative viability (Dovitinib + Olaparib; first compound 2 µM) |
| --- | --- | --- | --- | --- | --- | --- | --- | --- | --- | --- | --- | --- | --- | --- | --- | --- | --- | --- | --- | --- |
| HCC-827 | 0.553 | 0.553 | 0.565 | 0.603 | 0.57 | 0.191 | 0.171 | 0.216 | 0.202 | 0.191 | 0.395 | 0.402 | 0.426 | 0.41 | 0.405 | 0.626 | 0.697 | 0.646 | 0.68 | 0.678 |
| HCC-78 | 0.643 | 0.663 | 0.762 | 0.813 | 0.746 | 0.539 | – | 0.901 | 1.03 | 0.663 | 0.769 | 0.688 | 0.716 | 0.902 | 0.729 | 0.887 | 0.665 | 1.05 | 0.777 | 0.888 |
| NCI-H2085 | 0.534 | 0.628 | 0.599 | 0.528 | 0.627 | 0.834 | 0.785 | 0.723 | 0.894 | 0.818 | 0.69 | 0.846 | 0.732 | 0.771 | 0.717 | 0.731 | 0.828 | 0.723 | 0.762 | 0.758 |
| PC-14 | 0.743 | 0.795 | 0.822 | 0.696 | 0.86 | 0.296 | 0.336 | 0.308 | 0.309 | 0.279 | 0.657 | 0.563 | 0.553 | 0.542 | 0.765 | 0.291 | 0.276 | 0.27 | 0.217 | 0.247 |
| NCI-H2342 | 1.06 | 0.93 | 0.854 | 0.67 | 0.75 | – | – | – | – | – | 0.709 | 0.561 | 0.618 | 0.657 | 0.701 | 0.486 | 0.415 | 0.439 | 0.486 | 0.427 |
| A-427 | 0.724 | 0.705 | 0.709 | 0.768 | 0.72 | 1.02 | 0.952 | 1.01 | 0.975 | 1.05 | 0.363 | 0.3 | 0.307 | 0.282 | 0.347 | 0.711 | 0.641 | 0.773 | 0.797 | 0.822 |
| H3255 | 0.699 | 0.578 | 0.746 | 0.614 | 0.566 | 0.217 | 0.266 | 0.288 | 0.266 | 0.255 | 0.378 | 0.347 | 0.381 | 0.372 | 0.441 | 0.549 | 0.553 | 0.547 | 0.542 | 0.548 |
| HCC-44 | 1.06 | 1.07 | 1.1 | 1.07 | 1.02 | 1.01 | 1.02 | 1.03 | 0.938 | 1.01 | 0.294 | 0.138 | 0.174 | 0.229 | 0.197 | 0.976 | 0.977 | 0.949 | 0.996 | 0.92 |
| NCI-H1734 | 0.652 | 0.68 | 0.762 | 0.651 | 0.642 | 1.11 | 1.02 | 1.05 | 1.09 | 0.503 | 0.418 | 0.408 | 0.38 | 0.396 | 0.372 | 0.66 | 0.648 | 0.547 | 0.605 | 0.678 |
| NCI-H2228 | 0.652 | 0.467 | 0.454 | 0.507 | 0.488 | 1.18 | 0.942 | 0.991 | 1.08 | 0.831 | 0.288 | 0.419 | 0.285 | 0.432 | 0.285 | 0.689 | 0.592 | 0.866 | 0.768 | 0.573 |
| ABC-1 | – | – | – | – | – | 1.15 | 1.28 | 1.02 | 1.18 | 0.969 | 0.211 | 0.317 | 0.243 | 0.237 | 0.204 | 0.628 | 0.664 | 0.871 | 1.09 | 0.944 |
| COR-L23 | 0.568 | 0.641 | 0.601 | 0.532 | 0.628 | 0.918 | 0.983 | 1.04 | 1.01 | 0.882 | 0.416 | 0.467 | 0.478 | 0.455 | 0.507 | 0.296 | 0.383 | 0.379 | 0.353 | 0.342 |
| ChaGo-K-1 | 0.868 | 0.875 | 0.936 | 0.885 | 0.778 | – | – | – | – | – | 0.469 | 0.534 | 0.499 | 0.476 | 0.51 | 0.398 | 0.461 | 0.397 | 0.395 | 0.366 |
| EBC-1 | – | – | – | – | – | 0.25 | 0.228 | 0.222 | 0.194 | 0.216 | – | – | – | – | – | 0.723 | 0.69 | 0.664 | 0.712 | 0.677 |
| NCI-H441 | 0.486 | 0.477 | 0.434 | 0.441 | 0.49 | – | – | – | – | – | 0.981 | 0.786 | 0.767 | 0.898 | 0.839 | 0.513 | 0.549 | 0.534 | 0.62 | 0.588 |
| A549 | – | – | – | – | – | 1 | 0.956 | 0.893 | 0.817 | 0.887 | 0.145 | 0.174 | 0.284 | 0.113 | 0.201 | 0.301 | 0.329 | 0.353 | 0.458 | 0.353 |
| NCI-H1703 | – | – | – | – | – | 1.17 | 0.955 | 0.788 | 0.784 | 0.42 | – | – | – | – | – | 0.399 | 0.502 | 0.325 | 0.329 | 0.24 |
| LCLC-103H | 0.683 | 0.723 | 0.622 | 0.556 | 0.667 | – | – | – | – | – | 0.357 | 0.331 | 0.336 | 0.345 | 0.305 | 0.765 | 0.763 | 0.751 | 0.759 | 0.718 |
| NCI-H1563 | – | – | – | – | – | 0.92 | 0.994 | 0.944 | 0.982 | 1.18 | 0.591 | 0.669 | 0.665 | 0.656 | 0.664 | – | – | – | – | – |
